Assay results reported in publication PMC9952391, “The Role of Acetyl Zingerone and Its Derivatives in Inhibiting UV-Induced, Incident, and Delayed Cyclobutane Pyrimidine Dimers” (Antioxidants, 2023).

How the values were obtained:
[1] = tested on: incident CPDs (iCPDs) in NBHF cells; assay: iCPD assessment by DNA ELISA after ssUV, NBHF; assay type: cell-based, human; conditions: for Blockade of iCPDs: 24 h preincubation; for iCPD inhibition across doses: various doses, Figure 3C / Supplementary Figure S2B
From the text: (§1) For UV exposures, we used a “SOL-UV6 ultraviolet solar simulator” from Newport irradiators. It is equipped with a Xenon arc lamp where the output is varied using the integrated variable attenuator aperture, which provides the ability to vary the output from 10% to 100% of the maximum available solar constants. The output spectrum is flat from 320 nm to 400 nm and no values are below 300 nm. This is abbreviated as “ssUV” for “solar-simulated UV” throughout the text. Various cell types seeded at ~50% confluency, were treated with the AZ and analogs at concentrations mentioned in the data figures for 24–h. Cells at ~80–90% confluency (untreated controls), were washed twice with PBS and exposed to 18 kJ/m^2 of ssUV in minimal amount of PBS (ex. 2 mL PBS in a 60 mm cell culture dish) without any dish lid in place. […] The ssUV apparatus was monitored almost daily using UV meters for any emissions below 300 nm. The dose was decided based upon the 80–90% cell survival post UV exposure. After exposure, one time point was collected immediately to assess iCPDs, whereas more dishes were incubated in cell culture medium, inside the cell culture incubator, for various time points to be collected post UV to assess dCPDs. For dCPD induction, it is important that the cell culture incubator is not opened for at least 30 min (the first time point post UV) to avoid possible interference from the CO2/O2 ratio, which will be altered upon opening the incubator doors. Cells were collected by scraping and washed once with PBS, which was followed by DNA isolation using a Quick DNA miniprep Kit (Cat. D3024, Zymo Research, Irvine, CA, USA). CPDs were assessed using our previously established DNA ELISA protocols. In brief, ELISA was performed using mouse monoclonal Anti-CPD (Cat. CAC-NM-DND-001, Clone TDM-2, CosmoBio, Inc., Carlsbad, CA, USA). Flat-bottom, 96-well plates (Cat. 2801, Thermo Scientific, Waltham, MA, USA) were coated overnight with 50 µL of protamine sulphate (0.005–0.05%, Cat. P3369, Sigma, St. Lois, MO, USA) in distilled water. After washing twice with water, heat-denatured DNA was plated in triplicates from each sample, into the protamine sulphate coated plate wells (50–100 ng/well in 50 µL PBS) and incubated overnight at 37 °C. The plates were washed 5 times with 200 µL of PBST (PBS containing 0.05% Tween-20 Cat. P7949, Sigma), and blocked with 2–4% FBS in PBST (blocking buffer) for 1 h at room temperature (RT). The plates were incubated with 100 µL of a 1:1000 dilution of anti-CPD antibody in blocking buffer, and incubated for 30 min at 37 °C, which was followed by 5 washes in PBST. Next, the plates were incubated with 100 µL of a 1:2000 dilution of Biotin-F(ab’)2 fragment of anti-mouse IgG(H+L) (Cat. B-2763, Life Technologies) in blocking buffer for 30 min at 37 °C. Detection was conducted using 100 µL of a 1:10,000 dilution of Streptavidin HRP (Cat. 434323, Life Technologies) in 2% FBS for 30 min at 37 °C, which was followed by 5 washes. The plates were washed once with citrate phosphate buffer (24.3 mM citric acid monohydrate, J.T. Baker Cat. 0110-01- and 51.4-mM sodium phosphate dibasic, Sigma Cat. S7907, pH 5.0). The o-phenylene diamine dihydrochloride (Cat. P8287-50TAB, Sigma) was used as a HRP substrate at 400 µg/mL in citrate phosphate buffer for 5–10 min. A measure of 50 µL of 2M H2SO4 was used to stop the reaction as soon as the color developed (5–10 min incubation in substrate), and OD was measured at 490 nm using a Synergy-2 multimode microplate reader (BioTek, Winooski, VT, USA).

[2] = tested on: incident CPDs (iCPDs) in pigmented C57BL/6 melanocytes (Mel-a); assay: iCPD assessment by DNA ELISA after ssUV, Mel-a; assay type: cell-based, mouse; conditions: for Blockade of iCPDs: 50 µg/mL, 24-h preincubation, 18 kJ/m^2 ssUV; for iCPD inhibition across doses: various doses up to 1 mg/mL, 24 h, Figure 4A
From the text: as §1

melanin in Mel-a cells = assay: Melanin amount in melanocytes cultured in varied tyrosine; assay type: cell-based; conditions: 50 µg/mL; for Cell death on longer incubation: 2–3 weeks incubation
Experimental: The amino acid tyrosine is essential for melanin synthesis, and it is added to the OptiMem medium at a proprietary concentration by ThermoFisher. Assuming this concentration to be “100% tyrosine”, we purchased the “custom-prepared, tyrosine-free” medium from ThermoFisher. This medium lacked tyrosine or its precursors, which include L-tyrosine, L-tyrosine-2Na-2H2O, L-tyrosine-Di-sodium salt, Hypoxanthine, and Sodium Hypoxanthine. Mel-a (pigmented mouse melanocyte) cells were cultured in regular cell culture medium containing 100% tyrosine, and in medium containing 20%, 4%, or 0% of the total tyrosine amount. This was achieved by diluting the regular OptiMem with the one containing no tyrosine (tyrosine-free, 0% tyrosine). […] Since the cells cultured in 0%-tyrosine medium lost their pigment over time (Figure 5) and the cell pellets were almost white or opaque in color, we assumed that the minimal amount of tyrosine from the horse serum used in the cell culture medium was not sufficient for melanin synthesis. To estimate the amount of melanin, 3 × 10^6–5 × 10^6 cells were lysed in 1M sodium hydroxide (NaOH) by heating them at 100 °C for 1–2 h, which was followed by a 10-min spin at 14,000 rpm at room temperature to remove any cell debris. Absorbance of the supernatant was recorded using the supernatant in a 96-well plate in triplicates from each sample, at 460–490 nm. Synthetic melanin (Cat. M0418, Sigma) was dissolved in methanol and used as a positive control to generate standard curves to estimate the melanin amount in cell lysates. The number of cells in each pellet was used as a normalization factor for each experimental condition. In a complementary experiment, cells were first bleached out of melanin completely by culturing them in tyrosine-free medium, followed by 100/20/4/0% tyrosine (not shown) treatment. This seemed to be cytotoxic, comparatively more so in 100% tyrosine, probably owing to the toxicity of the sudden rush of melanin derivatives and the oxidative stress generated during melanin synthesis.

[3] = tested on: Xpa, Xpc, Mitf, Xrcc1 expression in Mel-a; assay: qPCR expression of NER pathway genes, Mel-a; assay type: cell-based, mouse; conditions: for NER pathway gene expression post UV exposure: 200 µg/ml, 24 h, then 18 kJ/m2 ssUV, various time points, relative to UV-induced upregulation; for Gene expression of Xpa, Xpc and Mitf (NER pathway) / Gene expression of Xrcc1: 24 h incubation, qPCR; for Gene expression of Xpa, Xpc and Mitf (NER pathway): no UV
Experimental: Various cell types were collected 24-h post incubation with 200 µg/mL AZ and MBPD, with and without ssUV exposure. RNA was isolated using a Quick-RNA isolation kit (Cat. R1050, Zymo Research). The cDNA was prepared using a High-Capacity cDNA Reverse Transcription Kit (Cat. 4368814, ThermoFisher Scientific). The gene expression of XPA, XPC, and MITF genes was assessed using the following primers. β-actin was used as an internal control for normalizations and data analyses. F1-R1 and F2-R2 represents two primer pairs which were used in the qPCR experiments.

| SMILES | Blockade of iCPDs ([1]; 1 mg/mL) | iCPD inhibition across doses [1] | Blockade of iCPDs [2] | iCPD inhibition across doses [2] | Impact on melanin (melanin in Mel-a cells; different tyrosine variations) | Cell death on longer incubation (melanin in Mel-a cells) | NER pathway gene expression post UV exposure [3] | Gene expression of Xpa, Xpc and Mitf (NER pathway) [3] | Gene expression of Xrcc1 [3] | Blockade of iCPDs ([1]; 50 µg/mL, 18 kJ/m^2 ssUV) | inhibition at 10 µg/mL ([1]; Homo sapiens, 10 ug/mL, Figure 3C, read-out: Inhibition of iCPD formation) [%] | Reduction in melanin (pigmentation) (melanin in Mel-a cells; 20% or less tyrosine, ~2–3 weeks) [%] | Reduction in melanin concentration (melanin in Mel-a cells; 100% tyrosine, ~2–3 weeks) |
| --- | --- | --- | --- | --- | --- | --- | --- | --- | --- | --- | --- | --- | --- |
| COc1cc(CC(C(C)=O)C(C)=O)ccc1O [AZ, 3-(4-Hydroxy-3-methoxybenzyl)-pentane-2,4-dione] | ~ 50% | minimal effect | ~ 30% | blocked iCPD generation in a dose-dependent manner | did not show any impact | 10–15% | elevated slightly | upregulated | remained unaffected |  |  |  |  |
| COc1ccc(CC(C(C)=O)C(C)=O)cc1 [MBPD, 3-(4-Methoxy-benzyl)-pentane-2,4-dione] |  | dose-dependent manner | ~50% | blocked iCPD generation in a dose-dependent manner |  | 10–15% | elevated slightly | upregulated | remained unaffected | ~ 50% | 30 to 40 | > 50 | ~ 25% |
